In patent US20140255330A1, “Mixed Sugar Compositions” (THE PROCTER & GAMBLE COMPANY, priority 2013, published 2014):

What was measured:
[1] = Thermal transition determination via DSC, -40° C. program (procedure of Example 30); type: physicochemical; conditions: for T Intercept-2 / T Peak Max-2: peak 2
Description: (§1) A Tzero Hermetic pan & lid was charged with ˜10-15 mg mixed material sample described in Examples 22. A Direct Scanning Coulometer, DSC Q2000 V24.9 was used to determine thermal transitions. The following temperature profile was used to obtain the data: ambient temperature cooled to −40° C. at 20° C./min, −40° C. to 160° C. at 20° C./min. The T intercept is defined as the temperature where the extrapolated slope of the initial curve of a peak intercepts the interpolated baseline of that peak. T Peak Max is defined as the temperature at the peak (inflection point) of a given curve.
Temperature program: Ambient temperature to −40° C. at 20° C./min, −40° C. to 140° C. at 20° C./min.
(§2) The procedure of Example 30 was followed using the mixed C12-ene-NMG:C12-ene-NMX samples described in Example 24.
The procedure of Example 30 was followed using the mixed C15-ene-NMG:C15-ene-NMX samples described in Example 25. […]
The procedure of Example 30 was followed using the mixed NMHG:NMHX samples described in Example 46.

[2] = Visual melting point determination (capillary melting point apparatus); type: physicochemical; conditions: for Ending MP: transparent gel to liquid
Source text: A Kimax −51 capillary tube (size 1.5−1.8×90 mm) was charged with the mixed C12-NMG:C12-NMX samples described in Example 22 to afford ˜½ inch sample bed. A Tomas Hoover Capillary Melting Point Apparatus was used to determine melting points visually. The Starting Melting Point (MP) is defined as the temperature (° C.) when the initial white opaque solid has completed the transition to a transparent gel. The Ending Melting Point (MP) is defined as the temperature (° C.) when the transparent gel transitions to liquid.
The procedure of Example 27 was followed using the mixed C12-NMG:C12-NMGly samples described in Example 23.

[3] = literature values; cited from earlier work
[4] = Thermal transition determination via DSC, -20° C. to 160° C. at 20° C./min; type: physicochemical; conditions: C12-NMG:C12-NMX; for T Intercept / T Peak Max: peak 1; for T Intercept-3 / T Peak Max-3: peak 3
Description: as §1, with “transitions. A DSC is able to detect phase transitions within a material that might not be visible to the naked eye.” for “transitions.”, “−20°” for “−40°”
Temperature program: Ambient temperature to −20° C. at 20° C./min, −20° C. to 160° C. at 20° C./min.

[5] = Physical consistency of samples noted at ambient temperature; type: physicochemical; conditions: when placed into DSC pan
Source text: as §2
The procedure of Example 30 was followed using the mixed C15-ene-NMG:C15-ene-NMX samples described in Example 25.
The procedure of Example 30 was followed using the mixed CCO-NMG:CCO-NMX samples described in Example 37.

[6] = Krafft Point analysis, Phase Technology NK60-KPA Analyzer (Diffusive Light Scattering); type: physicochemical; conditions: 1 wt % solutions of C12-NMG and C12-NMX in deionized water mixed by volume
Description: Krafft Point analysis was performed on a Phase Technology® NK60-KPA Analyzer that used a Diffusive Light Scattering (DLS) detection method. A 1 wt % solution was prepared in deionized water and 0.150 ml of this solution was added to the sample cell of the instrument at room temperature (20-25° C.). The following heating and cooling cycle was executed on the sample. Samples were warmed to 40° C. at a ramp rate of 5° C./min and held for 30 seconds. Next, Samples were cooled to −20° C. at a rate of −10° C./min and held for 60 seconds. Samples were then warmed to 0° C. at a rate of 5° C./min, held for 0 seconds, warmed to 30° C. at a rate of 2° C./min, held for 0 seconds and lastly warmed to 40° C. at a rate of 5° C./min.
Data was recorded as crystal count (y-axis) versus temperature (x-axis). […] During final warming cycle, when crystal count returned to original baseline, the temperature at that point was recorded as the Krafft point.
(§3) 1 wt % solutions of each of the materials in the table below were tested. […] A volume of 0.150 mL of this mixture was then analyzed via the Phase Technology® NK60-KPA Analyzer.
as §3

[7] = C12-NMG:C12-NMGly blends by weight
[8] = C12-NMG:C12-NMX blends by weight
[9] = C12-NMG:C12-NMX blends by weight, white opaque solid to transparent gel
[10] = C12-ene-NMG:C12-ene-NMX, peak 1, ** = No peak was observed
[11] = C15-ene-NMG:C15-ene-NMX, peak 1, ** = No peak was observed

Compound: CCCCCCCCCCCC(=O)N(C)C[C@H](O)[C@@H](O)[C@H](O)[C@H](O)CO [Example C12-NMG, N-Dodecanoyl-N-Methylglucamine]
- T Intercept ([1]; C12-NMG:C12-NMGly, peak 1): 82.0 °C
- T Peak Max ([1]; C12-NMG:C12-NMGly, peak 1): 94.7 °C
- T Intercept-2 ([1]; C12-NMG:C12-NMGly): 137.0 °C
- Ending PM [2, 7]: 127.2 °C
- Starting MP [2, 7]: 96.8 °C
- Ending MP [2, 8]: 129.8 °C
- Starting MP [2, 9]: 96 °C
- initial melting point (Zhu et al) [3]: 90.5-91.5 °C
- T Intercept [4]: 84.1 °C
- T Peak Max [4]: 94.7 °C
- T Intercept-3 [4]: 136.7 °C
- T Peak Max-3 [4]: 137.9 °C

Compound: CCCCCCCCCCCC(=O)N(C)CC(O)CO (centres unmarked) [Example C12-NMGly, N-Dodecanoyl-(3-methylamino-1,2-propanediol)]
- T Intercept ([1]; C12-NMG:C12-NMGly, peak 1): 44.5 °C
- T Peak Max ([1]; C12-NMG:C12-NMGly, peak 1): 49.6 °C
- T Intercept-2 ([1]; C12-NMG:C12-NMGly): 117.2 °C
- Ending PM [2, 7]: 52.8 °C
- Starting MP [2, 7]: 46.3 °C
- initial melting point (Zhu et al) [3]: 40-40.5 °C

Compound: CCCCCCCCCCCC(=O)N(C)CC(O)C(O)C(O)CO (centres unmarked) [Example C12-NMX, N-Dodecanoyl-N-Methylxylamine]
- Ending MP [2, 8]: 96.6 °C
- Starting MP [2, 9]: 76 °C
- initial melting point (Zhu et al) [3]: 74-75 °C
- T Intercept [4]: 69.7 °C
- T Peak Max [4]: 77.0 °C
- T Intercept-3 [4]: 95.6 °C
- T Peak Max-3 [4]: 97.2 °C

Compound: CCC=CCCCCCCCC(=O)N(C)C[C@H](O)[C@@H](O)[C@H](O)[C@H](O)CO [Example C12-ene-NMG, N-(9-Dodecenoyl)-N-Methylglucamine]
- T Intercept [1, 10]: 67.0 °C
- T Peak Max [1, 10]: 78.7 °C
- T Intercept-2 ([1]; C12-ene-NMG:C12-ene-NMX): 106.1 °C
- T Peak Max-2 ([1]; C12-ene-NMG:C12-ene-NMX): 108.5 °C
- physical consistency of sample [5]: powders

Compound: CCC=CCCCCCCCC(=O)N(C)CC(O)C(O)C(O)CO (centres unmarked) [Example C12-ene-NMX, N-(9-Dodecenoyl)-N-Methylxylamine]
- T Intercept [1, 10]: 26.0 °C
- T Peak Max [1, 10]: 28.6 °C
- T Intercept-2 ([1]; C12-ene-NMG:C12-ene-NMX): 86.2 °C
- T Peak Max-2 ([1]; C12-ene-NMG:C12-ene-NMX): 89.5 °C
- physical consistency of sample [5]: waxy in nature

Compound: CCCCCC=CCCCCCCCC(=O)N(C)C[C@H](O)[C@@H](O)[C@H](O)[C@H](O)CO [Example C15-ene-NMG, N-(9-Pentadecenoyl)-N-Methylglucamine]
- T Intercept [1, 11]: 64.1 °C
- T Peak Max [1, 11]: 77.9 °C
- T Intercept-2 ([1]; C15-ene-NMG:C15-ene-NMX): 144.6 °C
- T Peak Max-2 ([1]; C15-ene-NMG:C15-ene-NMX): 146.2 °C

Compound: CCCCCC=CCCCCCCCC(=O)N(C)CC(O)C(O)C(O)CO (centres unmarked) [Example C15-ene-NMX, N-(9-Pentadecenoyl)-N-Methyl-Xylamine]
- T Intercept [1, 11]: 27.5 °C
- T Peak Max [1, 11]: 38.8 °C
- T Intercept-2 ([1]; C15-ene-NMG:C15-ene-NMX): 113.0 °C
- T Peak Max-2 ([1]; C15-ene-NMG:C15-ene-NMX): 115.5 °C
- physical consistency of sample [5]: waxy in nature

Compound: CCCCCCN(C)C[C@H](O)[C@@H](O)[C@H](O)CO [NMHX, N-Methyl Hexyl Xylamine]
- T Intercept ([1]; NMHG:NMHX blends by weight): 48.6 °C
- T Peak Max ([1]; NMHG:NMHX blends by weight): 52.3 °C

Compound: CCCCCCCCCCCC(=O)N(C)C[C@H](O)[C@@H](O)[C@H](O)[C@H](O)CO [Solution 13, N-Dodecanoyl-N-Methylglucamine]
- Krafft Point [6]: 37 °C

Compound: N-Methyl Hexyl Glucamine [NMHG]
- T Intercept ([1]; NMHG:NMHX blends by weight): 73.8 °C
- T Peak Max ([1]; NMHG:NMHX blends by weight): 79.0 °C

Compound: N-Methylglucamine [Example 1]
- Krafft Point [6]: 20 °C
